Columns and labels:
[1] = tested on: K. pneumoniae 7225; assay: Lethal peritonitis infection model (survival); type: in vivo, Swiss albino mice; conditions: for Survival in lethal K. pneumoniae infection: each 10 mg kg^−1 s.c.
Procedure: (§1) For both lethal and non-lethal infection models involving Carbapenem resistant Klebsiella pneumoniae suitable strains, number of mice per treatment and bacterial infection dose were predetermined in preliminary experiments.
For the lethal peritonitis infections, mice were treated as in the non-lethal infection studies except the inoculation dose was 2×10^7 CFU mL^−1 K. pneumoniae 7225. The mice were then divided into the previously listed treatment regimens and treatment was provided every 24 h for two days after infection. Mice were monitored for mortality for 7 days and the moribund mice were euthanized humanely using cervical dislocation.
For survival experiments, Swiss albino mice were given lethal doses of K. pneumoniae 7225 (C) (2×10^7 CFU ml^−1) via i.p. injection. Mice were treated the same as in the non-lethal peritonitis experiments and mortality was monitored for 7 days. Data lines represent the percent of mice (n=10 mice per treatment group) that survived daily. […]

[2] = tested on: clinical isolate CR-K. pneumoniae 7225; assay: Non-lethal mouse peritonitis infection model; type: in vivo, Swiss albino mice
Procedure: as §1
Each mouse (n=6 per group) received an intraperitoneal (i.p.) injection of 200 μl of bacterial suspension (1×10^4 CFU ml^−1).
Mice were then treated once daily for two subsequent days (i.e. 24 h and 48 h). Twenty-four-hours after the last dose, the mice were euthanized via cervical dislocation and their spleen and liver excised, homogenized in PBS and plated onto Hichrome™ Klebsiella selective media (HiMedia Laboratories, PA, USA). The plates were incubated at 35° C. for 24 h and bacterial counts were determined (CFU g^−1 organ).
Based on the significance of the SP-azaBIMs to restore the in vitro efficacy of antibiotics against high priority pathogenic bacteria, we examined if these compounds could provide proof of concept that they could be used to treat in vivo infections. To test this, we performed both non-lethal and lethal intraperitoneal infection models in Swiss Albino mice.
There was a significant reduction in the K. pneumoniae load in both the liver (FIG. 2a) and spleen (FIG. 2b) for the combination therapies compared to the respective antibiotic monotherapies. […] Colistin (Col) (10 mg kg^−1) was used as the positive control in this case. K. pneumoniae load in the liver (FIG. 2a) and spleen (FIG. 2b) was determined by selective plating on Hichrome™ Klebsiella selective media. Data bars represent the average (n=6 mice per treatment group)±standard error.

[3] = tested on: Klebsiella pneumoniae ATCC BAA-2814; assay: Gene expression analysis by quantitative reverse transcription PCR; type: cell-based
Procedure: Cell treatment and RNA extraction: Overnight cultures of Klebsiella pneumoniae ATCC BAA-2814 grown on Brain Heart Infusion (BHI) agar was harvested and washed in phosphate buffer saline (pH=7.4) twice. Fresh Brain Heart infusion broth was inoculated with K. pneumoniae cells to a final concentration of 10^6 CFU mL^−1. Cells were subjected to the following treatments: T0—Vehicle only (ddH2O); T1—Meropenem only (0.25 MIC; 8 μg mL^−1); T2—Meropenem 0.25 MIC+SP-azaBIM 136 (2 ug mL^−1). Treated cells were incubated at 35° C. at 200 rpm and total RNA was extracted at 1 h and 6 h post exposure using TRIzol reagent (Life Technologies) following the manufacturer's protocol before eluting in DEPC treated water. Three biological replicates were included for each treatment.
Quantitative reverse transcription PCR analysis: Reverse transcription was done using the GoScript Reverse Transcriptase Kit (Promega, USA) employing a mixture (1:1) of random and oligo dT primers with 2 μg RNA as starting material in a 20-μL reaction following the manufacturers protocols. cDNA samples were then quantified by real-time PCR using specific primers in an Applied Biosystems 7500 Fast Real-Time PCR system (Life Technologies Corp., USA) and the data analysed using the 2^(−ΔΔct) method. Thermal cycling was performed using a two-step PCR amplification standard procedure at 95° C. for 30 s and 35 cycles of 95° C. for 5 s and 60° C. for 30 s. The expression levels of all the genes were normalized using the K. pneumoniae RNA polymerase sigma factor (rpoD) gene as an internal standard.
To examine this hypothesis, we investigated the expression of genes in K. pneumoniae ATCC […] that were affected by SP-azaBIM 136 treatment. Expression of key transcription factors and their associated downstream resistance and pathogenicity genes was examined in Klebsiella pneumoniae cells treated with meropenem and a combination of meropenem and SP-azaBIM 136. Cells in the exponential phase were either treated with 0.25 MIC (8 μg mL^−1) of Meropenem only or a combination of 0.25 MIC meropenem and 10 μg mL^−1 of SP-azaBIM 136. Untreated cells served as the control for baseline gene expression. Cells were exposed to each agent for 1 h and 6 h, after which the total RNA was extracted, and cDNA synthesis performed. […] The addition of SP-azaBIM 136 was theorized to revert the expression of the relevant genes closer to baseline expression levels.

[4] = co-administered with Meropenem 10 mg kg^−1, SP-azaBIM 136 10 mg kg^−1 s.c. at 1, 24, 48 h, versus Meropenem only
[5] = combination with Ciprofloxacin 10 mg kg^−1, SP-azaBIM 136 10 mg kg^−1 s.c., compared to Ciprofloxacin only
[6] = Meropenem 0.25 MIC + SP-azaBIM 136, 6 h
[7] = addition of SP-azaBIM 136 to meropenem, versus meropenem only

Oc1ccc(C(c2c[nH]c3cnccc23)c2c[nH]c3cnccc23)cc1 [SP-6azaBIM 136, 4-(bis(1H-pyrrolo[2,3-c]pyridin-3-yl)methyl)phenol] was tested, and the “Protection to lethal infections” value ([1]; SP-azaBIM 136 on its own) was “nor provide any protection to lethal infections”, the “Survival in lethal K. pneumoniae infection” value ([1]; co-treatment with Ciprofloxacin, 7 days) was 100% and the “Survival in lethal K. pneumoniae infection” value ([1]; co-treatment with Meropenem, 7 days) was 90%. For the same molecule, the “Mortality in lethal K. pneumoniae infection” value ([1]; monotherapy 10 mg kg^−1 s.c., 2×10^7 CFU ml^−1 i.p., 7 days) was 100%, the “K. pneumoniae load in the organs” value ([2]; SP-azaBIM 136 on its own, 10 mg kg^−1) was “not able to reduce K. pneumoniae load in the organs” and the “Reduction of bacterial cells in the liver” value [2, 4] was 41 fold. The “Reduction of bacterial cells in the spleen” value [2, 4] was 14 fold, the “Reduction of bacterial cells in the liver” value [2, 5] was ~53 fold and the “Reduction of bacterial cells in the spleen” value [2, 5] was ~12 fold. The “ROB gene expression relative to baseline levels” value ([3]; Meropenem 0.25 MIC + SP-azaBIM 136 (2 ug mL^−1, 10 μg mL^−1 elsewhere in the source), 1 h) was 0.35 times that of baseline levels, the “soxS gene expression compared to untreated cells” value ([3]; Meropenem 0.25 MIC + SP-azaBIM 136, 1 h) was 0.28 fold and the “ROB gene expression relative to baseline levels” value [3, 6] was 1.4 fold. For the same molecule, the “soxS gene expression compared to untreated cells” value [3, 6] was 0.76 fold, the “Expression of extended spectrum beta-lactamases and carbapenemase gene KPC” value ([3]; Meropenem + SP-azaBIM 136) was “significantly suppressed” and the TEM-1 gene expression ([3]; Meropenem + SP-azaBIM 136) was “no significant variation in expression”. For the same molecule, the “marA regulatory gene expression response” value ([3]; Meropenem + SP-azaBIM 136) was “not as profound as the other two genes”, the “Virulence gene expression (fimH, entB, iutA, rpmA)” value ([3]; SP-azaBIM 136 added to meropenem, 1 h and 6 h) was “expression decreased significantly” and the “Reduction in mexA gene expression” value [3, 7] was 17 fold. For the same molecule, the “Reduction in norB gene expression” value [3, 7] was 4.5 fold.

From patent US20230382926A1, “COMPOUNDS AND USES THEREOF” (The University of The West Indies, priority 2022, published 2023)
